Source: patent US10052330B2, “Substituted pyrido[3,4-b]pyrazines as Syk inhibitors” (HUTCHISON MEDIPHARMA LIMITED, priority 2011, dated 2018)
pIC50: −log10 of the molar value. Read-outs that look alike come from different tables or passages of the source.

Key:
RBL-2H3 cells = assay: IgE-induced Beta-hexosaminidase secretion in RBL-2H3 cells; format: cell-based; details: Rattus norvegicus
Syk kinase = Syk kinase (Homo sapiens, UniProt P43405); assay: Syk kinase enzymatic assay (Kit-Tyr 2 Peptide); format: biochemical; details: 8 concentrations, 1 μM down to 0.0003 μM; upper bound of each range is 'less than'; read-out: IC50: Enzymatic Activity (Syk kinase)
[1] = RBL-2H3, RBL-2H3 cells sensitized with SPE-7, stimulated with DNP-BSA, upper bound of each range is 'less than', read-out: IC50, IgE-induced Beta-hexosaminidase secretion

## CC1CN(c2ccc(-c3cc4nccnc4c(NC[C@@H]4CNCCO4)n3)cc2F)CCO1 (mixture of isomers) [Compound 250]
RBL-2H3 cells; [1]
  pIC50: 7.00 to 9.00
Syk kinase
  pIC50: 6.00 to 7.00

## CC1CN(c2ccc(-c3cc4nccnc4c(NCC4CNCCC4(F)F)n3)cc2)CCO1 (single isomer, unassigned) [Compound 308]
RBL-2H3 cells; [1]
  pIC50: 7.00 to 9.00
Syk kinase
  pIC50: 7.00 to 9.00

## FC1(CNc2nc(-c3ccc(N4CCOCC4)cc3)cc3nccnc23)CCCNC1 (single isomer, unassigned) [Compound 377]
RBL-2H3 cells; [1]
  pIC50: 7.00 to 9.00
Syk kinase
  pIC50: 7.00 to 9.00

## Fc1cc(-c2cc3nccnc3c(NCC3(F)CCCNC3)n2)ccc1N1CCOCC1 (single isomer, unassigned) [Compound 382]
RBL-2H3 cells; [1]
  pIC50: 7.00 to 9.00
Syk kinase
  pIC50: 7.00 to 9.00

## C[C@H]1CN(c2ccc(-c3cc4nccnc4c(NCC4CNCCC4(F)F)n3)cc2)CCO1 (single isomer, unassigned) [Compound 396]
RBL-2H3 cells; [1]
  pIC50: 7.00 to 9.00
Syk kinase
  pIC50: 7.00 to 9.00

## CN1CCN(c2ccc(-c3cc4nccnc4c(NCC4CN(S(C)(=O)=O)CCO4)n3)cc2)CC1 (stereo in doubt) [Compound 486, (S)-7-(4-(4-methylpiperazin-1-yl)phenyl)-N-((4-(methylsulfonyl)morpholin-2-yl)methyl)pyrido[4,3-b]pyrazin-5-amine]
RBL-2H3 cells; [1]
  pIC50: 7.00 to 9.00
Syk kinase
  pIC50: 7.00 to 9.00

## CN(CCCN)c1nc(-c2ccc(N3CCOCC3)cc2)cc2nccnc12 [Compound 4]
RBL-2H3 cells; [1]
  pIC50: 6.00 to 7.00
Syk kinase
  pIC50: 6.00 to 7.00

## CN(C)c1cccc(-c2cc3nccnc3c(NCC3CCCNC3)n2)c1 (stereo not drawn) [Compound 13]
RBL-2H3 cells; [1]
  pIC50: 6.00 to 7.00
Syk kinase
  pIC50: 6.00 to 7.00

## COc1cc(OC)cc(-c2cc3nccnc3c(NCC3CCCNC3)n2)c1 (stereo not drawn) [Compound 15]
RBL-2H3 cells; [1]
  pIC50: 6.00 to 7.00
Syk kinase
  pIC50: 6.00 to 7.00

## COc1cccc(-c2cc3nccnc3c(NCC3CCCNC3)n2)c1 (stereo not drawn) [Compound 17]
RBL-2H3 cells; [1]
  pIC50: 6.00 to 7.00
Syk kinase
  pIC50: 6.00 to 7.00

## Cn1cc(-c2cc3nccnc3c(NCC3CCCNC3)n2)cn1 (stereo not drawn) [Compound 18]
RBL-2H3 cells; RBL-2H3, read-out: IC50, IgE-induced Beta-hexosaminidase secretion
  pIC50: 6.00 to 7.00
Syk kinase
  pIC50: 6.00 to 7.00

## COc1ccc(-c2cc3nccnc3c(NCC3CCCNC3)n2)cc1F (stereo not drawn) [Compound 19]
RBL-2H3 cells; [1]
  pIC50: 7.00 to 9.00
Syk kinase
  pIC50: 7.00 to 9.00

## CN(C)c1ccc(-c2cc3nccnc3c(NC[C@H]3CCCNC3)n2)cc1 [Compound 21]
RBL-2H3 cells; [1]
  pIC50: 7.00 to 9.00
Syk kinase
  pIC50: 7.00 to 9.00

## Cc1ccc(-c2cc3nccnc3c(NCC3CCCNC3)n2)cc1 (stereo not drawn) [Compound 22]
RBL-2H3 cells; [1]
  pIC50: 7.00 to 9.00
Syk kinase
  pIC50: 7.00 to 9.00

## Fc1ccc(-c2cc3nccnc3c(NCC3CCCNC3)n2)cc1 (stereo not drawn) [Compound 23]
RBL-2H3 cells; [1]
  pIC50: 6.00 to 7.00
Syk kinase
  pIC50: 6.00 to 7.00

## CC(C)(O)[C@@H]1CCN(c2nc(-c3ccc(N4CCOCC4)cc3)cc3nccnc23)C1 [Compound 170]
RBL-2H3 cells; [1]
  pIC50: 6.00 to 7.00

## OCC1(CNc2nc(-c3ccc(N4CCOCC4)cc3)cc3nccnc23)COC1 [Compound 171]
RBL-2H3 cells; [1]
  pIC50: 6.00 to 7.00

## N#CCCNc1nc(-c2ccc(N3CCOCC3)cc2)cc2nccnc12 [Compound 187]
RBL-2H3 cells; [1]
  pIC50: 6.00 to 7.00

## FC(F)CNc1nc(-c2ccc(N3CCOCC3)cc2)cc2nccnc12 [Compound 197]
RBL-2H3 cells; [1]
  pIC50: 6.00 to 7.00

## FC(F)(F)C1CCC(CNc2nc(-c3ccc(N4CCOCC4)cc3)cc3nccnc23)CN1 (stereo not drawn) [Compound 199]
RBL-2H3 cells; [1]
  pIC50: 6.00 to 7.00

## Fc1cc(-c2cc3nccnc3c(NC[C@H]3CNCCC3(F)F)n2)ccc1N1CCOCC1 [Compound 369, (R)—N-((4,4-difluoropiperidin-3-yl)methyl)-7-(3-fluoro-4-morpholinophenyl)pyrido[4,3-b]pyrazin-5-amine]
Syk kinase
  pIC50: 6.00 to 7.00

## FC1(F)CCNC[C@@H]1CNc1nc(-c2ccc(N3CCOCC3)nc2)cc2nccnc12 [Compound 375, (R)—N-((4,4-difluoropiperidin-3-yl)methyl)-7-(6-morpholinopyridin-3-yl)pyrido[4,3-b]pyrazin-5-amine]
Syk kinase
  pIC50: 6.00 to 7.00

## F[C@]1(CNc2nc(-c3ccc(N4CCOCC4)nc3)cc3nccnc23)CCCNC1 [Compound 379, (R)—N-((3-fluoropiperidin-3-yl)methyl)-7-(6-morpholinopyridin-3-yl)pyrido[4,3-b]pyrazin-5-amine]
Syk kinase
  pIC50: 6.00 to 7.00

## CS(=O)(=O)c1ccc(-c2cc3nccnc3c(NC[C@H]3CNCCC3(F)F)n2)cc1 [Compound 391, (R)—N-((4,4-difluoropiperidin-3-yl)methyl)-7-(4-(methylsulfonyl)phenyl)pyrido[4,3-b]pyrazin-5-amine]
Syk kinase
  pIC50: 6.00 to 7.00

## NC(=O)CCC(=O)N1CCN(c2ccc(-c3cc4nccnc4c(NCC4CNCCO4)n3)cc2)CC1 (stereo not drawn) [Compound 422]
Syk kinase
  pIC50: 7.00 to 9.00

## CS(=O)(=O)N1CCC(n2cc(-c3cc4nccnc4c(NC[C@@H]4CNCCO4)n3)cn2)CC1 [Compound 431]
Syk kinase
  pIC50: 7.00 to 9.00

## O=C(C(F)F)N1CCO[C@H](CNc2nc(-c3ccc(N4CCOCC4)c(Cl)c3)cc3nccnc23)C1 [Compound 452]
Syk kinase
  pIC50: 6.00 to 7.00

## CNc1ccc(-c2cc3nccnc3c(NC[C@@H]3CN(C(=O)C(F)F)CCO3)n2)cc1 [Compound 453]
Syk kinase
  pIC50: 6.00 to 7.00

## COc1ccc(-c2cc3nccnc3c(NC[C@@H]3CN(C(=O)C(F)F)CCO3)n2)cc1OC [Compound 454]
Syk kinase
  pIC50: 6.00 to 7.00

## CNc1ccc(-c2cc3nccnc3c(NC[C@@H]3CN(C(=O)C(F)F)CCO3)n2)cc1F [Compound 457]
Syk kinase
  pIC50: 6.00 to 7.00

## CS(=O)(=O)N1CCO[C@H](CNc2nc(-c3ccc(C4CCNCC4)cc3)cc3nccnc23)C1 [Compound 459]
Syk kinase
  pIC50: 7.00 to 9.00

## CNC(=O)COc1ccc(-c2cc3nccnc3c(NC[C@@H]3CN(C(=O)C(F)F)CCO3)n2)cc1 [Compound 461]
Syk kinase
  pIC50: 6.00 to 7.00

## CCN(CC)c1ccc(-c2cc3nccnc3c(NC[C@@H]3CN(C(=O)C(F)F)CCO3)n2)cc1 [Compound 471]
Syk kinase
  pIC50: 6.00 to 7.00

## CN(CCO)c1ccc(-c2cc3nccnc3c(NC[C@@H]3CNCCO3)n2)cc1 [Compound 472, (S)-2-(methyl(4-(5-(morpholin-2-ylmethylamino)pyrido[4,3-b]pyrazin-7-yl)phenyl)amino)ethanol]
Syk kinase
  pIC50: 6.00 to 7.00

## CS(=O)(=O)CCOc1ccc(-c2cc3nccnc3c(NC[C@@H]3CNCCO3)n2)cc1 [Compound 478, (S)-7-(4-(2-(methylsulfonyl)ethoxy)phenyl)-N-(morpholin-2-ylmethyl)pyrido[4,3-b]pyrazin-5-amine]
Syk kinase
  pIC50: 6.00 to 7.00

## CC[N+]1(CC)CCC(c2ccc(-c3cc4nccnc4c(NC[C@@H]4CN(C(=O)C(F)F)CCO4)n3)cc2)CC1 [Compound 480, (R)-4-(4-(5-((4-(2,2-difluoroacetyl)morpholin-2-yl)methylamino)pyrido[4,3-b]pyrazin-7-yl)phenyl)-1,1-diethylpiperidinium iodide]
Syk kinase
  pIC50: 7.00 to 9.00

## O=S1(=O)CCNCC1CNc1nc(-c2ccc(N3CCOCC3)c(F)c2)cc2nccnc12 (stereo not drawn) [Compound 483]
Syk kinase
  pIC50: 6.00 to 7.00

## CN1CCN(c2ccc(-c3cc4nccnc4c(NCC4CNCCS4(=O)=O)n3)cc2)CC1 (stereo not drawn) [Compound 484]
Syk kinase
  pIC50: 6.00 to 7.00

## CC(=O)N1CCN(c2ccc(-c3cc4nccnc4c(NC[C@@H]4CN(S(C)(=O)=O)CCO4)n3)cc2)CC1 [Compound 491]
Syk kinase
  pIC50: 6.00 to 7.00

## CS(=O)(=O)N1CCN(c2ccc(-c3cc4nccnc4c(NC[C@@H]4CN(S(C)(=O)=O)CCO4)n3)cc2)CC1 [Compound 492]
Syk kinase
  pIC50: 6.00 to 7.00

## CS(=O)(=O)N1CCC(c2ccc(-c3cc4nccnc4c(NC[C@@H]4CN(O)CCO4)n3)cc2)CC1 [Compound 496, (R)-2-((7-(4-(1-(methylsulfonyl)piperidin-4-yl)phenyl)pyrido[4,3-b]pyrazin-5-ylamino)methyl)morpholin-4-ol]
Syk kinase
  pIC50: 6.00 to 7.00

## CS(=O)(=O)N1CCC(c2ccc(-c3cc4nccnc4c(NCC(O)CN)n3)cc2)CC1 (stereo not drawn) [Compound 509]
Syk kinase
  pIC50: 6.00 to 7.00
